Here are results for 2 compounds from US20190381024A1, “NICOTINAMIDE FOR LOWERING PHOSPHATE LEVELS IN HYPERPHOSPHATEMIA” (MEDICE Arzneimittel Putter GmbH & Co. KG, priority 2015, published 2019).

Molecules are shown by their SMILES. Where two headings read alike, the source gives them in different places.

Assay [1] has as its target T1, NaPi-IIb (Homo sapiens, UniProt O95436).
T1 sequence (O95436 1-690): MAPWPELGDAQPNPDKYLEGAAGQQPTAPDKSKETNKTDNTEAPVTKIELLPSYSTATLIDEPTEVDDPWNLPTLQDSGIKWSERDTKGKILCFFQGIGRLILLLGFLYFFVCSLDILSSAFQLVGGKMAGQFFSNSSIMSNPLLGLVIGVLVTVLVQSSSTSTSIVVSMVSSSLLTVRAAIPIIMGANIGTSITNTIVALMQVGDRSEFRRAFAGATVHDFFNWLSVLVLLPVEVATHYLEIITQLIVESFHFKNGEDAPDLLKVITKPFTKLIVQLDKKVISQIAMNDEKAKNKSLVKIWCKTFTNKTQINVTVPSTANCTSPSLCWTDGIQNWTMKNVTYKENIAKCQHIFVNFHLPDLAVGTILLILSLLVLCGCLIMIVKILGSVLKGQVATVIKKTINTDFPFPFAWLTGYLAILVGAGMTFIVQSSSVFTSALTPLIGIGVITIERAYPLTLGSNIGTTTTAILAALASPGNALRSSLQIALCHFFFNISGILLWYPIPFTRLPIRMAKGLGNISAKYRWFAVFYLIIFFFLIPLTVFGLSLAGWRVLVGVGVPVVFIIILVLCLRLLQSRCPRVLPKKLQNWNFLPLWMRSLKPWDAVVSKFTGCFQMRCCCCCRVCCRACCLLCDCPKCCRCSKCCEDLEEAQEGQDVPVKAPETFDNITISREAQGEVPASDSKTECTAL
Conditions: duodenal and jejunal BBM; cited from earlier work.

The next assay has as its target T2, NaPi-IIc (Homo sapiens, UniProt Q8N130).
T2 sequence (Q8N130 1-599): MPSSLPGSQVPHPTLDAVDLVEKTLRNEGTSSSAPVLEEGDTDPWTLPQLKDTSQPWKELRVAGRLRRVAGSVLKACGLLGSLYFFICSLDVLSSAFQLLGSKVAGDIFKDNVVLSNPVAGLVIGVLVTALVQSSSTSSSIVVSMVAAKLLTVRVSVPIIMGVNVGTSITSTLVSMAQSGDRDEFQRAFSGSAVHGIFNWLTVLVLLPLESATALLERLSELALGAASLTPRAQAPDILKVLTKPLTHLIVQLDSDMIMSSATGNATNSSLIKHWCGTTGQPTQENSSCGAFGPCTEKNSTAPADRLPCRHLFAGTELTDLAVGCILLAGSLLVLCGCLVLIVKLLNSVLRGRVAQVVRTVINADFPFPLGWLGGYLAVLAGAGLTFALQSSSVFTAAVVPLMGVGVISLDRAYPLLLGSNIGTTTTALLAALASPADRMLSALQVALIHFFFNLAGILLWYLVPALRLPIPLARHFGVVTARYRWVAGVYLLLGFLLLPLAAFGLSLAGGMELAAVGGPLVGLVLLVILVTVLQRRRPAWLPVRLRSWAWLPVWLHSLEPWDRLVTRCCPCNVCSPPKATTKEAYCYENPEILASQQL
The note with it: proximal renal tubule BBM (S1); cited from earlier work.

The target of another assay is T3, NaPi-IIa (Homo sapiens, UniProt Q06495).
T3 sequence (Q06495 1-639): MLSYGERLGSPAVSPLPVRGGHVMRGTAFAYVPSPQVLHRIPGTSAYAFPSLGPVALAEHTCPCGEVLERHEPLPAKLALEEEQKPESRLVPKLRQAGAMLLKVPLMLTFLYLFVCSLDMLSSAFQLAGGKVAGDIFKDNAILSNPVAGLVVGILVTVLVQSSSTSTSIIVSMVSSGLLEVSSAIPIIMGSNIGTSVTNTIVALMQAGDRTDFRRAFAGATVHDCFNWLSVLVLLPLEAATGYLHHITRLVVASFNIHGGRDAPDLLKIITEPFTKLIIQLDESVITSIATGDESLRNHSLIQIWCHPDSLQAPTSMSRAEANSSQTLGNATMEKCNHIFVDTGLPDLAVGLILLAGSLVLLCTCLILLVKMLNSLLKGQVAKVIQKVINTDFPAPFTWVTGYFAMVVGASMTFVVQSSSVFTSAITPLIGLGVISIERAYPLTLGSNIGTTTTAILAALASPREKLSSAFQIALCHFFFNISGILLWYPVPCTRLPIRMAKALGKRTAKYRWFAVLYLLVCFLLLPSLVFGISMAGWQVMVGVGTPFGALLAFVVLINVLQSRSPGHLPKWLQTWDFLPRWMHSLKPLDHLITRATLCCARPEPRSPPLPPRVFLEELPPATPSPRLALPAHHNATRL
Conditions: proximal renal tubule BBM (S1-S3); cited from earlier work.

Assay [2] is described as follows: Clinical study of serum phosphate levels in CKD patients on hemodialysis (FIG. 2-5). It is filed as in vivo, human. An excerpt: A study has been undertaken wherein administration of a conventional phosphate binder as well as administration of nicotinamide has been compared with the administration of a combination of a phosphate binder and nicotinamide. For concrete numbers of the amount of patients tested as well as with regard to the phosphate binder and the dosing of phosphate binder and nicotinamide, further details can be taken from the following description, also with regard to the Figures.
These findings are derived from several clinical findings in which chronic renal insufficient patients underwent various medication regimes after an initial wash out phase over 4 weeks to eliminate and to control for pre-medication effects.

For assay [3] the following is noted: animals; cited from earlier work.
For assay [4] the following is noted: intraperitoneal administration; cited from earlier work.
The subject of assay [5] is NaPi-IIb. Conditions: intraperitoneal administration; cited from earlier work.
The conditions of assay [6]: human, CKD patients; cited from earlier work.
The next assay concerns NaPi-IIb receptor. Nature of the assay: Expression of NaPi-IIb receptor in the small intestine over 5 weeks (FIG. 1). It is filed as in vivo. The note with it: nicotinamide 10 mg/kg body weight, conventional binder calcium carbonate 10 mg/kg, sevelamer 20 mg/kg body weight.

On to `O=C(O)P(=O)(O)O` [PFA, Phosphonoformic acid], for which, on NaPi-IIb [1], the “Pharmacological regulators (direction of regulation) of NaPi-IIb” value was “PFA (↓)”. In addition, on NaPi-IIc, the “Pharmacological regulators (direction of regulation) of NaPi-IIc” value is reported as “PFA (↓)”. Further, the “Pharmacological regulators (direction of regulation) of NaPi-IIa” value at NaPi-IIa is reported as “PFA (↓)”.

Take `NC(=O)c1cccnc1` [nicotinamide]: the “reduction of serum phosphate” value in assay [2] (combination of nicotinamide and known phosphate lowering agents versus dose-equivalent nicotinamide alone or binders alone) is “more profound and superior reduction”. The “patients achieving target levels <1.78 mmol/l” value in assay [2] (nicotinamide 250 to 1000 mg once daily as add on to previous conventional phosphate binder therapy, 9 weeks, n=126 ITT) is 69%. The “patients with phosphate levels <1.78 mmol/l” value in assay [2] (nicotinamide alone, 250 to 1000 mg oral once daily, 9 weeks, n=126 ITT) came out at 45%. Besides, the “lowering elevated phosphate levels” value in [3] and in assay [6] was “effective” throughout. Moreover, in assay [4], the “gastrointestinal absorption of phosphate” value is “inhibits”. Moreover, the “Pharmacological regulators (direction of regulation) of NaPi-IIb” value on NaPi-IIb [1] is listed as “Nicotinamide (↓)”. The “expression of NaPi-IIb” value in the assay on NaPi-IIb [5] is reported as “blocks”. In addition, the “expression of NaPi-IIb in the small intestine” value with NaPi-IIb receptor is recorded as “downregulates”.
